From patent US20260102359A1, “COMBINATION TREATMENT OF DERMAL AND TRANSDERMAL FIBROTIC DISEASES, DISORDERS AND ASSOCIATED PAIN AND INFLAMMATION” (ERESINA, LLC, priority 2022, published 2026) come the findings set out here.

Structures can show the parent of a compound that is named as a salt.

The subject of this series is hDMFa myofibroblast cells.
In the case of `Cc1c(Cl)cccc1Nc1ccccc1C(=O)O` [Cmpd 955, Tolfenamic Acid], the “Compound Myofibroblast Cytotoxicity Activity” value is reported as “++”.
For the compound `C=C1/C(=C\C=C2/CCC[C@]3(C)[C@@H]([C@H](C)/C=C/[C@@H](O)C4CC4)CC[C@@H]23)C[C@@H](O)C[C@@H]1O` [Cmpd 203, Calcipotriol], the “Compound Myofibroblast Cytotoxicity Activity” value is recorded as “+++”.
Turning to `NC(CO)C(=O)NNCc1ccc(O)c(O)c1O` (stereo not shown) [Cmpd 162, Benserazide HCl], the “Compound Myofibroblast Cytotoxicity Activity” value is recorded as “++”.
In the case of `C[C@@H]1C[C@H]2[C@@H]3CCC4=CC(=O)C=C[C@]4(C)[C@@]3(Cl)[C@@H](O)C[C@]2(C)[C@@]1(OC(=O)c1ccco1)C(=O)CCl` [Cmpd 688, Mometasone furoate] it was “++”; in that of `COc1ccc(Cc2cnc(N)nc2N)cc1OC` [Cmpd 349, Diaveridine], “++”; in that of `C=C1CC[C@H]2O[C@]2(C)CC[C@@H]2[C@@H]1CC2(C)C` [Cmpd 222, Caryophyllene Oxide], “++”.
`Cc1cc(C2CCCCC2)n(O)c(=O)c1.NCCO` [Cmpd 259, Ciclopirox ethanolamine]: the “Compound Myofibroblast Cytotoxicity Activity” value was “+++”.
For `CN[C@@H]1[C@H](O)[C@H](NC)[C@H]2O[C@@]3(O)C(=O)C[C@@H](C)O[C@H]3O[C@@H]2[C@H]1O` [Cmpd 885, Spectinomycin (hydrochloride hydrate)], the “Compound Myofibroblast Cytotoxicity Activity” value is “+++”.
As to `Cc1nc(Nc2ncc(C(=O)Nc3c(C)cccc3Cl)s2)cc(N2CCN(CCO)CC2)n1.O` [Cmpd 328, Dasatinib Monohydrate], the “Compound Myofibroblast Cytotoxicity Activity” value is given as “+++”.
In the case of `COc1ccc(CC2c3cc(OC)c(OC)cc3CC[N+]2(C)CCC(=O)OCCCCCOC(=O)CC[N+]2(C)CCc3cc(OC)c(OC)cc3C2Cc2ccc(OC)c(OC)c2)cc1OC` (stereo not shown) [Cmpd 142, Atracurium Besylate], the “Compound Myofibroblast Cytotoxicity Activity” value is “+++”.
With `O[C@H]1[C@H](O)[C@@H](O)[C@H](O)[C@@H](O)[C@H]1O` [Cmpd 692, myo-Inositol], the “Compound Myofibroblast Cytotoxicity Activity” value is recorded as “++++”.
With `COc1cc(O)c(C(=O)c2ccccc2)cc1S(=O)(=O)O` [Cmpd 901, Sulisobenzone], the “Compound Myofibroblast Cytotoxicity Activity” value is “++”.
Regarding `CC(=O)O.CC(=O)O.NC(=N\CCCCCC/N=C(N)/N=C(\N)Nc1ccc(Cl)cc1)/N=C(\N)Nc1ccc(Cl)cc1` [Cmpd 247, Chlorhexidine diacetate], the “Compound Myofibroblast Cytotoxicity Activity” value is reported as “+++++”.
Consider `CCC(C)(C)c1ccc(CC(C)CN2C[C@@H](C)O[C@@H](C)C2)cc1` (stereo partly shown) [Cmpd 113, Amorolfine HCl], for which the “Compound Myofibroblast Cytotoxicity Activity” value is recorded as “+++”.
Take `COc1cc(C(=O)NS(=O)(=O)c2ccccc2C)ccc1Cc1cn(C)c2ccc(NC(=O)OC3CCCC3)cc12` [Cmpd 1023, Zafirlukast]: the “Compound Myofibroblast Cytotoxicity Activity” value is “+++++”.
For the compound `C[C@@H](Oc1cc(-c2cnn(C3CCNCC3)c2)cnc1N)c1c(Cl)ccc(F)c1Cl` [Cmpd 27, (R)-Crizotinib], the “Compound Myofibroblast Cytotoxicity Activity” value was “++++”.
For the compound `O=C1CN(/N=C/c2ccc([N+](=O)[O-])o2)C(=O)N1` [Cmpd 720, Nitrofurantoin], the “Compound Myofibroblast Cytotoxicity Activity” value is “++++”.
Turning to `N=C(NCCCCCCNC(=N)NC(=N)Nc1ccc(Cl)cc1)NC(=N)Nc1ccc(Cl)cc1.O=C(O)[C@H](O)[C@@H](O)[C@H](O)[C@H](O)CO.O=C(O)[C@H](O)[C@@H](O)[C@H](O)[C@H](O)CO` [Cmpd 248, Chlorhexidine digluconate], the “Compound Myofibroblast Cytotoxicity Activity” value is recorded as “+++”.
Turning to `CC(=O)O[C@H]1CC[C@@]2(C)C(=CC[C@@H]3[C@@H]2CC[C@]2(C)C(c4cccnc4)=CC[C@@H]32)C1` [Cmpd 75, Abiraterone acetate], the “Compound Myofibroblast Cytotoxicity Activity” value was “+++”.
